One experiment deals with normal hepatocytes. The experiment in a line: Metal-induced lipid peroxidation (MDA) in normal cultured hepatocytes. The class given is cell-based, Wistar rats. Conditions: for IC50: Rattus norvegicus, Hepatocyte, normal hepatocytes, 100 μM, read-out: IC50 of lipid peroxidation inhibition. An excerpt:
(§1) Isolation and culture of hepatocytes: Male Wistar rats weighing 180 to 210 g were fed with standard chow and water ad libitum. Hepatocytes were isolated by collagenase perfusion method as described by Wolkoff et al. (J Clin Invest 1987; 79: 1259-1268). Briefly, the liver was perfused with collagenase type IV (Sigma Chemical, St. Louis, Mo., USA) and isolated hepatocytes were suspended in culture medium consisting of Waymouth's 752/1 (Gibco, Grand Island, N.Y., USA) containing 5% heat-inactivated fetal bovine serum, 2.5 mM CaCl2, 5 μg/mL bovine insulin (Sigma), 100 U/mL penicillin and 0.1 mg/mL streptomycin. The isolated cells were further fractionated on Percoll density gradients to obtain a viability higher than 98%, as ascertained by trypan blue. Approximately 1.5×10^6 cells in 3 mL or approximately 5.0×10^6 cells in 10 mL in individual 60- or 100-mm diameter Lux culture dishes were placed in an incubator in an atmosphere of […] at 37° C., and then separately cultured. After a 9 hr incubation, the monolayer of hepatocytes was cultured for an additional 12 hr in the medium containing 1.0 mM α-linolenic acid (LNA)-bovine serum albumin (BSA). Seventy percent or more of added LNA was adsorbed by cultured cells after incubation.
(§2) After incubation for 6 hr, the medium was separated. Malonyldialdehyde (MDA) in the medium was assessed by a slight modification of the Uchiyama and Mihara method (Anal Biochem 1978; 86: 271-278). Briefly, to 0.1 ml of the medium in a 12 ml glass tube, 3 ml of 1% […] and 1 ml of 0.67% thiobarbituric acid were added and heated at 100° C. for 45 min. After cooling in ice water, 4 ml of n-butanol was added and the resulting mixture was shaken and then centrifuged to separate the butanol layer. The fluorescence intensity in the butanol layer was assayed at the excitation and emission wavelengths of 515 and 553 nm, respectively. The auto-oxidation products of fatty acid in the medium were within 0.3 nmol and were used as blank. Dimethyl sulfoxide (20 μl) was diluted in 2000 μl of the culture medium, including control cultures of metal ions only in the absence of the test compounds and the final concentration of 1% dimethyl sulfoxide had no measurable effect on lipid peroxidation in basal cultured hepatocytes.

Experiment [1] relates to lysosomal fractions. The experiment can be described thus: Lysosome fragility test: LDH leakage and β-galactosidase release with metal ions. The format is biochemical, Wistar rats. Conditions: YHK at the higher concentration, p<0.05. On the procedure:
(§3) Preparation of lysosomal fractions: After homogenizing in 9 volumes of 0.3 M sucrose, the liver was centrifuged at 450×g for 10 min. The supernatants were again centrifuged at 3500×g for 10 min, and the lysosome-containing supernatant was centrifuged at 10000×g for 10 min. The pellets were washed and centrifuged at 10000×g for 10 min, and resuspended in the sucrose buffer to a protein concentration of 15 mg/ml.
Lysosome fragility test: The fraction was incubated with the test compound and each of metal ions and β-galactosidase activity was measured in accordance with the method of Olsson et al. (Anal Cell Pathol 1990; 2: 179-188), using 4-methylumbelliferyl-β-galactosidase as a substrate. The results were expressed as percentage of total β-galactosidase released. Lactate dehydrogenase leakage was also measured in the culture medium in accordance with the method of Hillaire et al. (Hepatology 1995; 22: 82-87).
In general terms: LDH leaks from cells whose membrane has failed.

For another experiment, the system named is LNA-loaded hepatocytes. The experiment can be described thus: Metal-induced lipid peroxidation (MDA) in LNA-loaded hepatocytes. The format is cell-based, Wistar rats. The conditions noted are these: Rattus norvegicus, Hepatocyte, LNA-loaded cells, 100 μM, read-out: IC50 of lipid peroxidation inhibition.
Excerpt: as §1
as §2, with “Dimethyl sulfoxide (20 μl) was diluted in 2000 μl of the culture medium, including control cultures of metal ions only in the absence of the test compounds and the final concentration of 1% dimethyl sulfoxide had no measurable effect on lipid peroxidation in basal cultured hepatocytes.” left out

For experiment [2], the system named is lysosomal fractions. The experiment in a line: Oxidative damage tests of lysosomes: enzyme release with AAPH or AMVN radical generators. The class given is biochemical, Wistar rats. Conditions: 10^−4M, ± SE. The procedure: as §3
Oxidative damage tests of lysosomes: Assays for the release of acid phosphatase and β-N-acetylglucosaminidase from lysosomes were carried out by incubating lysosomal suspensions in the presence of test compounds. […] For this experiment, lysosomal suspensions were preincubated in the presence of 1 mM of the test compounds for 30 min and centrifuged at 12000×g for 10 min. Then the pellets were washed in 0.15 M KCl-5 mM Tris buffer (pH 7.4), centrifuged and re-suspended in 0.1M acetate buffer (pH 5.5).

Molecules are shown by their SMILES. Like-named read-outs stand apart in the source and are kept apart here.

On to `COc1cc(C2Oc3cc([C@H]4Oc5cc(O)cc(O)c5C(=O)[C@@H]4O)ccc3OC2CO)ccc1O` (stereo partly drawn) [Sylibin, sylibin], for which the IC50 – broadly, the concentration that gives 50% inhibition – with normal hepatocytes (CuSO4-induced) stood at 7.3 ± 0.3 µM; in the experiment with normal hepatocytes (FeSO4-induced), 18.9 ± 3.2 µM; with normal hepatocytes (VCl3-induced), 10.8 ± 1.2 µM; with LNA-loaded hepatocytes (CuSO4-induced) it was 16.8 ± 1.5 µM; in the experiment with LNA-loaded hepatocytes (FeSO4-induced), 79.9 ± 9.2 µM; in the experiment on LNA-loaded hepatocytes (VCl3-induced) it was 17.3 ± 1.2 µM. In addition, the “MDA generation in the medium” value in the experiment on normal hepatocytes (metal catalysts, up to 6 hr, p<0.05) is recorded as “significantly decreased”. Also, the “β-galactosidase release from lysosomes” value in the experiment with lysosomal fractions [1] is recorded as “significantly decreased”. Besides, the “Acid phosphatase release, enzyme activity” value is 51.9 ± 5.6 % of control in the experiment on lysosomal fractions [2] (AAPH-induced release) and 83.9 ± 10.4 % of control with lysosomal fractions [2] (AMVN-induced release). For the same compound, the results for the “β-N-acetylglucosaminidase release, enzyme activity” value with lysosomal fractions [2] (AAPH-induced release) and with lysosomal fractions [2] (AMVN-induced release) were 54.6 ± 4.7 % of control and 77.3 ± 7.4 % of control, respectively.

The record behind these values is patent US20060105061A1, “Galenical composition” (priority 2004, published 2006).
